Patent US20190201419A1, “COMPOUND AND METHOD FOR THE TREATMENT AND DIAGNOSIS OF NEURODEGENERATIVE CONDITIONS” (Swansea University, priority 2013, published 2019)

Legend:
[1] = system: Abca1, Abcg1 and Srebf1 transcript levels; experiment: Quantitative PCR of Lxr target genes in SN4741 cells; assay type: cell-based, mouse; settings: 3 h
Protocol: (§1) Quantitative PCR, Total RNA was extracted from SN4741. cells and zebrafish treated with the compounds of interest using the RNeasy Mini Kit (Qiagen), 1 μg was treated with RQ1 RNase-free DNase (Promega) and reverse transcribed using SuperScript II Reverse Transcriptase (invitrogen) and random primers (invitrogen) (RT+reaction). Parallel reactions without reverse transcriptase enzyme were done as a control (RT−reaction), and Sybergreen real-time quantitative PCR assays were performed. Expression levels were obtained by normalization with the Value of the housekeeping gene encoding actin obtained for every sample in parallel assays.

[2] = target: T1, Lxrβ (Homo sapiens, UniProt P55055); experiment: Lxrβ luciferase reporter assay in SN4741 neural cells; assay type: cell-based, mouse; settings: for Lxrβ activation, luciferase activity (fold activation): SN4741 cells, 10 μM, 24 h
T1 construct: expressed in transfected cells; host or cells: SN4741 mouse neuronal cell line
T1 sequence (P55055 1-460): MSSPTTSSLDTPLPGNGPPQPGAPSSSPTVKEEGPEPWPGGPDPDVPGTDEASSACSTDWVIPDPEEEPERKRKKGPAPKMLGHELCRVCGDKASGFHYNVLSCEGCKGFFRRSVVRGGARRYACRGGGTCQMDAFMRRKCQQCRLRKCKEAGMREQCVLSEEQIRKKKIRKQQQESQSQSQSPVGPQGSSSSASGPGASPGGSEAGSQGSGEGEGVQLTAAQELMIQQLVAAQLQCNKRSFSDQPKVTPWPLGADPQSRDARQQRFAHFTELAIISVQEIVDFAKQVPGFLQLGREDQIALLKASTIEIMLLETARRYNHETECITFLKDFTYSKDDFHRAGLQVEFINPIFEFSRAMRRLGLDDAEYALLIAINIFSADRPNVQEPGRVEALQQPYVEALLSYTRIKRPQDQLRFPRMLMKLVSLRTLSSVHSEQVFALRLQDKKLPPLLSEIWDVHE
Excerpt: (§2) Luciferase Reporter Assay.

[3] = target: T2, Lxrβ-LBD (Homo sapiens, UniProt P55055); experiment: Lanthascreen TR-FRET Lxrβ coactivator assay; assay type: binding
T2 construct: the Lxrβ-LBD tagged with glutathione-S-transferase (GST); purchased Invitrogen
T2 sequence (P55055 222-460 limits assumed): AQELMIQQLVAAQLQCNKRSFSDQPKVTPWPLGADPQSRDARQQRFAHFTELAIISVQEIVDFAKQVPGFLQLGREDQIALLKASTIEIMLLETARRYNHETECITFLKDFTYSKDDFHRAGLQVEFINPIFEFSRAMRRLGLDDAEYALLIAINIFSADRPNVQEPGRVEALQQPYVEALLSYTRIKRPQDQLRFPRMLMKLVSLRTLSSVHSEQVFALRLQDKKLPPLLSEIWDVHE
Excerpt: Lxrβ Ligand Binding Assay. For Lxrβ ligand binding activity measurement, the applicants used the Lanthascreen™ TR-FRET Lxrβ Coactivator Assay (Invitrogen). The assay uses a terbium (Tb)-labeled anti-GST antibody, a fluorescein-labeled coactivator peptide and the Lxrβ-LBD tagged with glutathione-S-transferase (GST). Binding of the agonist/ligand to Lxrβ-LBD causes a conformational change that result in an increase in the affinity of the Lxrβ for the coactivator peptide. The close proximity of the fluorescently labeled coactivator peptide to the Tb-labeled antibody causes an increase in the TR-FRET signal intensity. The TR-FRET ratio of 520/495 was calculated using a Victor multi label reader with an excitation wavelength of 340 nm and emission wavelengths of 520 nm and 495 nm, The activational capacity of potential ligands was tested in a […] polypropylene plate, following the manufacturer's protocol.

[4] = system: zebrafish embryos; experiment: Survival of transgenic zebrafish embryos on compound exposure; assay type: in vivo
Protocol: (§3) Zebrafish Strain and Maintenance Zebrafish were raised on a 14/10 h day/night cycle and were kept at 28.5 ° C. Islet-1:GFP transgenic embryos were obtained via natural spawning and staged in hours or days post fertilization (hpf and dpt) according to Kimmel et al). Embryos older than 24 hpf were treated with 0.03% phenylthiourea (PTU) to inhibit pigmentation. MO injections were performed using splice site specific zebrafish lxi MO MO injected embryos were immediately dechorionated and transferred to a 96 well plate and exposed to dimethyl sulfoxide (DMSO) treated or ligand treated medium. Compound Exposure. Islet-1:GFP embryos were collected by natural mating and immediately (at 1 cell stage) dechorionated and transferred to a 96 well plate. Each of the compounds tested were obtained as 10 mM stock and diluted in embryo medium to a final concentration of 10 μM, and 200 μL was added to each well. DMSO or propan-2-ol treated embryo medium was taken as control. Ligand solutions were replaced every 12 h with fresh ligand solution prepared in PTU treated embryo medium. Embryos were collected at 48 hpf, fixed for 4 h at room temperature with 4% paraformaldehyde and then washed and kept in PBST. Immunocytochemistry was performed using an anti-GFP antibody and fluorescence was viewed and photographed using a Zeiss Axioplan compound microscope and a Zeiss Axiocam digital camera.

[5] = system: active caspase 3+ cells; experiment: Active caspase 3+ cells in mouse E11.5 brain primary cultures; assay type: cell-based; settings: for Number of active caspase-3+ cells: wt cultures, 3β,7α-diHCA, 3βH,7O-CA, 25-HC at 10 μM, toxic acids at low concentrations
Protocol: (§4) Primary Brain Cultures. Brains from E11.5 mice were manually dissected, plated on poly-D-lysine (150,000 cells/cm^2) and grown in serum-free N2 media consisting of 1:1 mixture of F12 and DMEM with 10 ng/mL insulin, 100 μg/mL apo-transferrin, 100 μM putrescine, 20 nM progesterone, 30 nM selenium, 6 mg/mL glucose, and 1 mg/mL BSA. Cells were treated for 3 days in vitro (DIV) with the compounds of interest, fixed with 4% PFA and processed for staining using appropriate antibodies.
(§5) Antibodies and Detection Procedures. Cells were fixed in 4% PFA, washed in PBS and blocked in 5% normal goat serum/PBS for 1 h at room temperature. Primary antibodies were diluted in PBS (pH 7.4), 0.3% Triton X-100, 1% BSA and incubations were carried out overnight at +4° C. or at room temperature for 2 h. The antibodies used were anti-:BrdU (1:400; Abeam), Islet-1 (1:100: Developmental Studies Hybridoma Bank), cleaved caspase-3 (Aspt 75) (1:100; Cell Signaling Technology), tyrosine hydroxylase (TH; 1:1000; Pel-Freeze) GABA (1:1,000; Sigma), Bm3a (1:250; Millipore), Nkx6.1 (1:200; Novus Biologicals), choline acetyltransferase (ChAT; 1:500; Millipore) and appropriate secondary antibodies (Jackson ImmunoResearch or Alexa). Cells positive for the corresponding marker were counted directly at the microscope at a magnification of 20×. Cells were counted in every well, in eight consecutive fields (going from one side of the well to the other, passing through the center), in three different wells per experiment and in three different experiments per condition. Random pictures of the wells were taken for every condition to document the result, and representative pictures were subsequently selected to represent the quantitative data. Photos were acquired with a Zeiss Axioplan microscope and a Hamamatsu camera C4742-95 using the Openlab software.

[6] = target: T3, Lxrα (Homo sapiens, UniProt Q13133); experiment: Lxrα luciferase reporter assay in SN4741 neural cells; assay type: cell-based, mouse; settings: for Lxrα activation, luciferase activity (fold activation): 10 μM, 24 h
T3 construct: expressed in transfected cells; host or cells: SN4741 mouse neuronal cell line
T3 sequence (Q13133 1-447): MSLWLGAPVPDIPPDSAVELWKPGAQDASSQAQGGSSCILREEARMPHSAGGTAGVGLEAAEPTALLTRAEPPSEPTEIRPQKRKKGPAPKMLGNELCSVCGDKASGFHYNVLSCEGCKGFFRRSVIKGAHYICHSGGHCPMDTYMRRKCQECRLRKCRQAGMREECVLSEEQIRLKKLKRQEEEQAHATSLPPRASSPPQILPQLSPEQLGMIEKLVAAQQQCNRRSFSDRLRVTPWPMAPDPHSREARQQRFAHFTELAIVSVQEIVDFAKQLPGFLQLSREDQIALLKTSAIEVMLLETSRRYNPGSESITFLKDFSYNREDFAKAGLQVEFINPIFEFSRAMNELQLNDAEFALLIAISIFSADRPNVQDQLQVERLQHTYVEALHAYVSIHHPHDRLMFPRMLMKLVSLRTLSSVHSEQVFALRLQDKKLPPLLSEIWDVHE
Excerpt: as §2

[7] = system: Islet1+ oculomotor neurons; experiment: Islet1+ cells in mouse E11.5 brain primary cultures; assay type: cell-based; settings: for Number of Islet1+ cells / Concentration giving significant difference from vehicle in Islet1+ cells: wild type cultures; for Concentration giving significant difference from vehicle in Islet1+ cells: p<0.05; for Effect on Islet1+ cells in Lxrα−/−β−/− cultures: cultures from Lxrα−/−β−/− mice; for Effect on Islet1+ cells with Lxr antagonist GGPP: wt cultures, 10 μM GGPP
Protocol: as §4, §5

[8] = system: Islet-1; experiment: Islet-1 expression in Tg[Isl1:GFP] zebrafish embryos; assay type: in vivo; settings: 10 μM
Protocol: as §1, §3

[9] = LC-ESI-MSn of cholestenoic acids in mouse brain; settings: 23 month old male Cyp7b1−/− mice
Excerpt: Animals. Lxra,−/−β−/− mouse cell cultures were from the colony at the Department of Biosciences and Nutrition at Novum, Karolinska Institutet. Male and female wild-type and Lxrα−/−β−/− mice were generated as previously described (Alberti et al. J. Clin. Invest 2001:107(5), 565-73). Mice were back crossed onto a C57BL/6 background for 10 generations. Male Cyp7b1−/− mouse brain and plasma were from animals generated at the University of Edinburgh. Male mice homozygous for targeted disruption of the Cyp7b1 gene congenic on the C57BL/6 genetic background (>15 generations backcrossed to C57BL/6) and wild-type littermate controls were generated from Cyp7b1−/+ crosses. Male cyp27a1−/− mouse tissue and plasma was purchased from The Jackson Laboratory (ME, USA) strain B6.129-Cyp27a1^tm1Elt/J. The Cyp27a1−/− colony was backcrossed to C57BL/6J inbred mice for approximately 12 generations by the donating investigator prior to sending to The Jackson Laboratory Repository. Upon arrival, mice were bred to C57BL/6J inbred mice for at least one generation to establish the colony. Wild type animals from the colony were used as controls.
Extraction of Sterols. […]
Charge Tagging of Sterols. The sterols were charge-tagged with the GP-hydrazine to enhance their response when analysed by LC-ESI-MS and tandem mass spectrometry (MS^n).

[10] = system: TH+ dopamine neurons, GABAergic or red nucleus neurons; Nkx6.1+ cells; experiment: Other cell types in mouse E11.5 brain primary cultures; assay type: cell-based; settings: data not shown
Protocol: as §4, §5

[11] = system: abca1; experiment: abca1 expression in zebrafish embryos; assay type: in vivo; settings: 10 μM
Protocol: as §1
Zebrafish Strain and Maintenance Zebrafish were raised on a 14/10 h day/night cycle and were kept at 28.5 ° C. Islet-1:GFP transgenic embryos were obtained via natural spawning and staged in hours or days post fertilization (hpf and dpt) according to Kimmel et al). Embryos older than 24 hpf were treated with 0.03% phenylthiourea (PTU) to inhibit pigmentation. […] Immunocytochemistry was performed using an anti-GFP antibody and fluorescence was viewed and photographed using a Zeiss Axioplan compound microscope and a Zeiss Axiocam digital camera.

| Compound | Lxrβ activation, luciferase activity (fold activation) [2] | Number of active caspase-3+ cells [5] | Lxrα activation, luciferase activity (fold activation) [6] | Number of Islet1+ cells [7] | Concentration giving significant difference from vehicle in Islet1+ cells [7] | Islet-GFP expression ([8]; embryos 48 hpf) | Effect on Islet1+ cells in Lxrα−/−β−/− cultures [7] | Effect on Islet1+ cells with Lxr antagonist GGPP [7] | further results |
| --- | --- | --- | --- | --- | --- | --- | --- | --- | --- |
| CC(CCC[C@@H](C)[C@H]1CC[C@H]2[C@@H]3[C@@H](O)C=C4C[C@@H](O)CC[C@]4(C)[C@H]3CC[C@]12C)C(=O)O (stereo partly drawn) [3β,7β-diHCA, 3β,7β-dihydroxycholest-5-en-26-oic acid] | have the ability to activate both Lxrs | increased the number of active caspase-3+ cells | have the ability to activate both Lxrs | caused the loss of Islet1+ cells in the cultures | ≥ 2 µM | – | – | – | Abca1, Abcg1 and Srebf1 transcript levels [1]: induced transcription, but to a lesser extent; Lxr activational capacity in combination with 22R-HC ([2]; 10 μM acid + 10 μM 22R-HC): No additive effect was observed; Competition with the effect of 3β,7α-diHCA in TR-FRET ([3]; 3β,7α-diHCA at 10 μM plus increasing concentrations of competitor): the effect of 3β,7α-diHCA was reduced to that of the latter acids; Competitor concentration giving significant difference from 10 μM 3β,7α-diHCA alone in TR-FRET ([3]; p<0.05 vs 10 μM 3β,7α-diHCA): ≥ 2; Toxic effect on survival of the fish [4]: had a deleterious toxic effect which impaired the survival of the fish; Surviving cells in cultures ([5]; 10 μM): no surviving cells were detected; Concentration at which toxicity is initiated ([5]; mouse, primary brain cultures from E11.5 mouse embryos, 3 days): 1000 nM; Concentration giving significant difference from vehicle in active caspase 3+ cells ([5]; p<0.05): ≥ 2 µM |
| C[C@H](CCCC(C)(C)O)[C@H]1CC[C@H]2[C@@H]3CC=C4C[C@@H](O)CC[C@]4(C)[C@H]3CC[C@]12C [25-HC, cholest-5-ene-3β,25-diol] | activate Lxr | reduced the number of active caspase-3+ cells | activate Lxr | increase the number of Islet1+ oculomotor cells | – | induced a modest increase in the levels of islet-1 | blocked in cultures from Lxrα−/−β−/− animals | inhibited by the Lxr antagonist GGPP | Lxr luciferase activity with addition of the Lxr antagonist GGPP ([6]; 10 μM metabolite + 10 μM GGPP): similarly blocked; Level in Cyp7b1−/− mouse brain [9]: > 2 ng/mg |
| CC(CCC[C@@H](C)[C@H]1CC[C@H]2[C@@H]3C(=O)C=C4C[C@@H](O)CC[C@]4(C)[C@H]3CC[C@]12C)C(=O)O (stereo partly drawn) [3βH,7O-CA, 3β-hydroxy-7-oxocholest-5-en-26-oic acid] | have the ability to activate both Lxrs | did not affect the number of active caspase-3+ cells | have the ability to activate both Lxrs | increased the number of Islet1+ oculomotor cells in the cultures | ≥ 10 µM | increased Islet-GFP expression | eliminated | blocked by the Lxr antagonist GGPP | Number of other midbrain neurons (TH+ dopamine, GABAergic, red nucleus) [10]: did not affect the number of other midbrain neurons; abca1 expression [11]: enhanced expression of abca1; Islet-1 mRNA and protein level (qPCR, western blot) [8]: accompanied by an increase in the level of Islet-1 mRNA and protein; Number of Islet1+ cells in cranial nerves (III, IV, V, VII, X) ([8]; embryos 48 hpf): had no significant effect on the number of Islet1+cells; Islet-GFP levels after lxr morpholino injection ([8]; lxr MO vs control scrambled MO): lxr MO injections abolished the in vivo increase in Islet-GFP levels |
